Laboratory results reported in ChEMBL document CHEMBL1152400, “Tetrahydrocarbazole amides with potent activity against human papillomaviruses” (Bioorg Med Chem Lett, 2009).

Tests used:
[1] = Cytotoxicity against HFF cells; format: cell-based; details: human
[2] = system: Human papillomavirus type 16; test: Antiviral activity against Human papillomavirus 16 infected in human W12-20850 cells by hybrid capture method; format: functional, organism-based; details: Human papillomavirus 16, W12-20850
[3] = Bioavailability in rat; format: ADME, organism-based; details: in vivo
[4] = Half life in rat at 10 mg/kg; format: ADME, organism-based; set-up: dose 10 mg/kg; details: in vivo
[5] = Half life in dog at 5 mg/kg; format: ADME, organism-based, Canis lupus familiaris; set-up: dose 5 mg/kg; details: in vivo
[6] = Clearance in rat at 2 mg/kg, iv; format: ADME, organism-based; set-up: dose 2 mg/kg, route intravenous; details: in vivo
[7] = Volume of distribution at steady state in monkey at 2 mg/kg, iv; format: ADME, organism-based, Macaca mulatta; set-up: dose 2 mg/kg, route intravenous; details: rhesus monkey, in vivo, read-out: Vdss
[8] = Half life in monkey at 5 mg/kg; format: ADME, organism-based, Macaca mulatta; set-up: dose 5 mg/kg; details: rhesus monkey, in vivo
[9] = Clearance in dog at 2 mg/kg, iv; format: ADME, organism-based, Canis lupus familiaris; set-up: dose 2 mg/kg, route intravenous; details: in vivo
[10] = Oral bioavailability in dog at 5 mg/kg; format: ADME, organism-based, Canis lupus familiaris; details: in vivo
[11] = Oral bioavailability in monkey at 5 mg/kg; format: ADME, organism-based, Macaca mulatta; details: rhesus monkey, in vivo
[12] = Oral bioavailability in rat at 10 mg/kg; format: ADME, organism-based; details: in vivo
[13] = Volume of distribution at steady state in dog at 2 mg/kg, iv; format: ADME, organism-based, Canis lupus familiaris; set-up: dose 2 mg/kg, route intravenous; details: in vivo, read-out: Vdss
[14] = Volume of distribution at steady state in rat at 2 mg/kg, iv; format: ADME, organism-based; set-up: dose 2 mg/kg, route intravenous; details: in vivo, read-out: Vdss
[15] = Clearance in monkey at 2 mg/kg, iv; format: ADME, organism-based, Macaca mulatta; set-up: dose 2 mg/kg, route intravenous; details: rhesus monkey, in vivo
Cytochrome P450 2D6 = Cytochrome P450 2D6 (Homo sapiens, UniProt P10635); test: Inhibition of CYP2D6; format: ADME
[16] = molecular target: Voltage-gated inwardly rectifying potassium channel KCNH2 (Homo sapiens, UniProt Q12809)
Sequence of Voltage-gated inwardly rectifying potassium channel KCNH2 (Q12809 whole entry): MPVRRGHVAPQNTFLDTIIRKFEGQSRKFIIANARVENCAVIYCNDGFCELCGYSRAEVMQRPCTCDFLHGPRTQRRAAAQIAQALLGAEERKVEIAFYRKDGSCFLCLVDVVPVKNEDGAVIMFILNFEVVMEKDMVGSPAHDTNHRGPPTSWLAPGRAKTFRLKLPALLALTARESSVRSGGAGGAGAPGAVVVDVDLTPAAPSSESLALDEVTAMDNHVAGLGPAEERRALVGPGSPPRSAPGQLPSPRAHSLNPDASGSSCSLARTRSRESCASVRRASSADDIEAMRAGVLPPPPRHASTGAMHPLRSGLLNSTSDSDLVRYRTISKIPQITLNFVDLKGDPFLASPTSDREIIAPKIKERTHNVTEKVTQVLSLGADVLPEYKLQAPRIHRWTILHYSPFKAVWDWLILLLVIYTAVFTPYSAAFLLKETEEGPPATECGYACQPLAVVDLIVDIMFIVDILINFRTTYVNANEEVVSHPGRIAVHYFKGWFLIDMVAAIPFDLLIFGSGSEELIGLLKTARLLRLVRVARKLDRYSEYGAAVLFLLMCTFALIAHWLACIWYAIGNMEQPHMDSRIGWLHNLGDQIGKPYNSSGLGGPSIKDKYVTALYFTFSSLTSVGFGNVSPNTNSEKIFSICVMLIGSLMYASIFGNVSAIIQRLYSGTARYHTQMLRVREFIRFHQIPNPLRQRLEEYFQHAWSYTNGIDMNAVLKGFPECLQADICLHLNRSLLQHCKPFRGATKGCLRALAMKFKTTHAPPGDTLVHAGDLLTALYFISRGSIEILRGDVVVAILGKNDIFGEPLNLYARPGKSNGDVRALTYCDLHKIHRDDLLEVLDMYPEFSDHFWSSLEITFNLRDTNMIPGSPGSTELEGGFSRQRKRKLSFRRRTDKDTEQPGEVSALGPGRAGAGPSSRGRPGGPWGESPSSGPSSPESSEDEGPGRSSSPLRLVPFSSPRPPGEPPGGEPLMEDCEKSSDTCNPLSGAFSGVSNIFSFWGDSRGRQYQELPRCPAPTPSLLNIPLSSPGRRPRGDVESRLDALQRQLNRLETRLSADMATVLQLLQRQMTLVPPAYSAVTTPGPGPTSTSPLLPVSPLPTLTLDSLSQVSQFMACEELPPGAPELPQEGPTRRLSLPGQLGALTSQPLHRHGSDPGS

Sequence of Cytochrome P450 2D6 (P10635 whole entry): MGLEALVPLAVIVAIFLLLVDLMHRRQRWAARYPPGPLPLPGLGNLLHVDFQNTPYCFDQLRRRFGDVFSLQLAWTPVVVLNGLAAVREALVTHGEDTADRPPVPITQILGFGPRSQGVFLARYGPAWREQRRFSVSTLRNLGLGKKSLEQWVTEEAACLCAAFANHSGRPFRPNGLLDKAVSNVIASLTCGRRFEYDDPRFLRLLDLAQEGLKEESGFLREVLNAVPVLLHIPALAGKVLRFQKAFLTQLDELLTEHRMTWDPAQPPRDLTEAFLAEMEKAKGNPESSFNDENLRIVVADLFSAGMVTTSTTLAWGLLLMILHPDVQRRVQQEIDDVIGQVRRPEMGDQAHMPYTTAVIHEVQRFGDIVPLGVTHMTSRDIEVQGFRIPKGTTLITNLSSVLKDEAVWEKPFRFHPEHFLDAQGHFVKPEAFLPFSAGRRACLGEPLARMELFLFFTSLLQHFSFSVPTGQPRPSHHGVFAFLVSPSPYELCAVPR

SMILES: O=C(Cc1ccccc1)NC1CCCc2c1[nH]c1ccc(Br)cc21 (stereo not given)
- CC50 [1]: > 50 µM
- IC50 [2]: 0.58 µM

SMILES: O=C(NC1CCCc2c1[nH]c1ccc(Br)cc21)c1cccc(F)c1 (racemic)
- CC50 [1]: 65 µM
- IC50 [2]: 0.018 µM

SMILES: O=C(NC1CCCc2c1[nH]c1ccc(Br)cc21)c1ccccc1F (racemic)
- CC50 [1]: 49 µM
- IC50 [2]: 0.008 µM

SMILES: Brc1ccc2[nH]c3c(c2c1)CCCC3Nc1ccccn1 (stereo not given)
- CC50 [1]: 20.7 µM
- IC50 [2]: 0.04 µM

SMILES: CS(=O)(=O)NC1CCCc2c1[nH]c1ccc(Br)cc21 (stereo not given)
- CC50 [1]: > 50 µM
- IC50 [2]: 2.26 µM

SMILES: COc1ccccc1C(=O)NC1CCCc2c1[nH]c1ccc(Br)cc21 (racemic)
- CC50 [1]: 100 µM
- IC50 [2]: 21 µM

SMILES: O=C(NC1CCCc2c1[nH]c1ccc(Br)cc21)OCc1ccccc1 (stereo not given)
- CC50 [1]: > 20 µM
- IC50 [2]: 0.045 µM

SMILES: O=C(NC1CCCc2c1[nH]c1ccc(Br)cc21)c1ccccn1 (racemic)
- CC50 [1]: 72 µM
- IC50 [2]: 0.005 µM

SMILES: Cc1ccccc1C(=O)NC1CCCc2c1[nH]c1ccc(Br)cc21 (stereo not given)
- CC50 [1]: 40 µM
- IC50 [2]: 0.5 µM

SMILES: Brc1ccc2[nH]c3c(c2c1)CCCC3Nc1ccccc1 (stereo not given)
- CC50 [1]: 50.8 µM
- bioavailability [3]: < 5%
- IC50 [2]: 0.01 µM

SMILES: O=C(CCc1ccccc1)NC1CCCc2c1[nH]c1ccc(Br)cc21 (stereo not given)
- CC50 [1]: > 50 µM
- IC50 [2]: 1.2 µM

SMILES: O=C(N[C@@H]1CCCc2c1[nH]c1ccc(Cl)cc21)c1ccccn1
- half-life [4]: 4.1 h
- half-life [5]: 9.5 h
- clearance [6]: 13.1 mL/min/kg
- Vd [7]: 0.13 L/kg
- half-life [8]: 3.6 h
- clearance [9]: 5 mL/min/kg
- bioavailability [10]: 35%
- CC50 [1]: 16 µM
- bioavailability [11]: 56%
- bioavailability [12]: 56%
- Vd [13]: 1.7 L/kg
- Vd [14]: 1.6 L/kg
- clearance [15]: 1.1 mL/min/kg
- IC50 [2]: 0.005 µM

SMILES: O=C(/C=C/c1ccccc1)NC1CCCc2c1[nH]c1ccc(Br)cc21 (stereo not given)
- CC50 [1]: > 40 µM
- IC50 [2]: 0.32 µM

SMILES: O=C(N[C@H]1CCCc2c1[nH]c1ccc(Cl)cc21)c1ccccc1
- CC50 [1]: 55 µM
- IC50 [2]: 11.3 µM

SMILES: O=C(NC1CCCc2c1[nH]c1ccc(Br)cc21)c1ccncc1 (racemic)
- CC50 [1]: 100 µM
- IC50 [2]: 0.2 µM

SMILES: COc1ccc(C(=O)NC2CCCc3c2[nH]c2ccc(Br)cc32)cc1 (racemic)
- CC50 [1]: 88 µM
- IC50 [2]: 0.017 µM

SMILES: C[C@@H](N[C@@H]1CCCc2c1[nH]c1ccc(Br)cc21)c1ccccc1
- IC50 (Cytochrome P450 2D6): 0.16 µM

SMILES: COc1cccc(C(=O)NC2CCCc3c2[nH]c2ccc(Br)cc32)c1 (racemic)
- CC50 [1]: 26 µM
- IC50 [2]: 0.021 µM

SMILES: O=C(N[C@H]1CCCc2c1[nH]c1ccc(Br)cc21)c1ccccc1
- CC50 [1]: 52 µM
- IC50 [2]: 5.7 µM

SMILES: O=C(NC1CCCc2c1[nH]c1ccc(Br)cc21)c1ccccc1 (stereo not given)
- CC50 [1]: > 20 µM
- IC50 [2]: 0.03 µM

SMILES: O=C(NC1CCCc2c1[nH]c1ccc(Br)cc21)c1ccc(F)cc1 (racemic)
- CC50 [1]: 47 µM
- IC50 [2]: 0.044 µM

SMILES: O=C(N[C@@H]1CCCc2c1[nH]c1ccc(Cl)cc21)c1ccccc1
- CC50 [1]: 26 µM
- IC50 [2]: 0.02 µM

SMILES: O=C(N[C@H]1CCCc2c1[nH]c1ccc(Cl)cc21)c1ccccn1
- CC50 [1]: 61 µM
- IC50 [2]: 9 µM

SMILES: O=C(N[C@@H]1CCCc2c1[nH]c1ccc(Cl)cc21)c1ccccc1F
- IC50 (Cytochrome P450 2D6): > 20 µM
- IC50 [16]: > 20 µM
- CC50 [1]: 24 µM
- IC50 [2]: 0.008 µM

SMILES: O=C(NC1CCCc2c1[nH]c1ccc(Br)cc21)c1cccnc1 (racemic)
- CC50 [1]: 100 µM
- IC50 [2]: 0.19 µM

SMILES: O=C(N[C@@H]1CCCc2c1[nH]c1ccc(Br)cc21)c1ccccc1
- CC50 [1]: 39 µM
- IC50 [2]: 0.008 µM

SMILES: O=C(NC1CCCc2c1[nH]c1ccc(Br)cc21)C1CCCCC1 (stereo not given)
- CC50 [1]: 50 µM
- IC50 [2]: 0.4 µM

SMILES: Brc1ccc2[nH]c3c(c2c1)CCCC3Nc1ncccn1 (stereo not given)
- CC50 [1]: 89.5 µM
- IC50 [2]: 0.09 µM

SMILES: Cc1ccc(S(=O)(=O)NC2CCCc3c2[nH]c2ccc(Br)cc32)cc1 (stereo not given)
- CC50 [1]: > 20 µM
- IC50 [2]: 0.024 µM

SMILES: Cc1ccc(C(=O)NC2CCCc3c2[nH]c2ccc(Br)cc32)cc1 (racemic)
- CC50 [1]: 87 µM
- IC50 [2]: 0.01 µM

SMILES: CC(=O)NC1CCCc2c1[nH]c1ccc(Br)cc21 (stereo not given)
- CC50 [1]: > 50 µM
- IC50 [2]: 12.9 µM

SMILES: Cc1cccc(C(=O)NC2CCCc3c2[nH]c2ccc(Br)cc32)c1 (racemic)
- CC50 [1]: 41 µM
- IC50 [2]: 0.024 µM

SMILES: O=C(N[C@H]1CCCc2c1[nH]c1ccc(Cl)cc21)c1ccccc1F
- CC50 [1]: 36 µM
- IC50 [2]: 2.1 µM
